The source of these data is the NIST ThermoML archive (doi:10.1016/j.jct.2015.05.020).

Each structure is given as a SMILES string. ± gives the expanded uncertainty stated by the source.

For data set [1] the following is noted: Crystal; visual observation.
Data set [2] is described as follows: Molar enthalpy of transition or fusion. As to conditions: Crystal; DSC.

As to `COc1cc(C=O)ccc1O` [vanillin], in data set [1], the Normal melting temperature was 81.60 ± 1.1 °C. Also, in data set [2], the “Molar enthalpy of transition or fusion” value stood at 24.8 ± 1.7 kJ/mol.
